Test results: patent US8188221B2, “Peptide homing to brain tumors” (Burnham Institute for Medical Research, priority 2008, dated 2012)
Ends that are not written are not given here.

What was measured:
Format in all cases: in vivo, mice
[1] = system: human U87MG intracranial xenograft; assay: Homing and localization of fluorescein-conjugated peptide in intracranial U87MG tumors (histology, PECAM-1 co-staining)
Method: (§1) Fluorescein-conjugated CGLSGLGVA peptide (10 μg) was injected into tail vein of murine HIFko or human U87MG intracranial xenograft bearing mice. After 60 min of circulation tumor-containing brain was excised and prepared for histological analysis. Peptide was visualized by using an antibody against fluorescein (rabbit anti-FITC, Zymed Laboratories). […] Nuclei were visualized by DAPI staining (blue).
Fluorescein-conjugated CGLSGLGVA peptide (10 μg) was injected into the tail vein of intracranial human U87MG tumor-bearing mice. After 60 min of circulation tumor-containing brain was excised and prepared for histological analysis. Peptide was visualized by using an antibody against fluorescein (rabbit anti-FITC, Zymed Laboratories). […] Magnification in FIG. 6A, 200×; FIG. 6B, 400×.

[2] = system: VEGF overexpressing (VEGF+) tumor; assay: Homing of fluorescein-conjugated peptide to intracranial VEGF-overexpressing tumors (histology); details: 10 μg into tail vein, 60 min circulation, FIG. 3A
Method: Fluorescein-conjugated CGLSGLGVA peptide (10 μg) was injected into the tail vein of VEGF overexpressing (VEGF+) tumor-bearing mice. After 60 min of circulation tumor was excised and prepared for histological analysis. Peptide was visualized by using an antibody against fluorescein (rabbit anti-FITC, Zymed Laboratories). FIG. 3A. […] 3B: Same microscopic field as in 3A. Nuclei were visualized by DAPI staining (blue).

subcutaneous HIFko tumor = assay: Homing of fluorescein-conjugated peptide to subcutaneous HIFko tumors (histology); details: 10 μg into tail vein, 60 min circulation, FIG. 4A
Method: Fluorescein-conjugated CGLSGLGVA peptide (10 μg) was injected into the tail vein of subcutaneous HIFko tumor-bearing mice. After 60 min of circulation tumor was excised and prepared for histological analysis. Peptide was visualized by using an antibody against FITC (rabbit anti-FITC, Zymed Laboratories). FIG. 4A. […] FIG. 4B. Same microscopic field as in FIG. 4A. Nuclei were visualized by DAPI staining (blue).

[3] = system: intracranial HIFko islet tumors; assay: Homing of fluorescein-conjugated peptide to intracranial HIFko islet tumors (histology, anti-FITC); details: 10 μg into tail vein, 60 min circulation
Method: Fluorescein-conjugated CGLSGLGVA peptide (10 μg) was injected into tail vein of HIFko tumor-bearing mice. After 60 min of circulation tumor-containing brain was excised and prepared for histological analysis. Peptide was visualized by using an antibody against fluorescein (rabbit anti-FITC, Zymed Laboratories). […] Presence of the tumor cells was confirmed by staining for the SV40 T-antigen specific for tumor cells from a subsequent section (green in FIG. 2B). FIGS. 2C and 2D show the same microscopic field as 2A and 2B. Nuclei were visualized by DAPI staining (blue).
as §1

[4] = system: intracranial HIF-1alfa KO (HIFko) tumor; assay: Homing of phage displaying CGLSGLGVA to intracranial islet tumors (phage titration of organs); details: peptide displayed on phage, 10^9 pfu into tail vein, 15 min circulation, perfusion, FIG. 1
Method: CGLSGLGVA or a control phage (10^9 pfu=plaque forming unit) were injected into the tail vein of intracranial HIF-1alfa KO (HIFko) tumor-bearing mice. After 15 min of circulation the mice were perfused through the heart with saline to remove unbound phage followed by excision of tumor containing brain, normal brain, liver, kidney and lungs. The number of phage homed to those organs were determined by titration.

Row | Substance | homing to tumor ([1]; U87MG human glioblastoma xenografts, intravenous injection into the tail vein) | homing pattern of peptide in tumor ([1]; human U87MG intracranial xenograft, 10 μg into tail vein, 60 min circulation, FIG. 5B) | colocalization with endothelial cell marker PECAM-1 ([1]; intracranial U87MG tumor, 10 μg into tail vein, 60 min circulation, FIG. 6) | detection of peptide in tumor tissue [2] | detection of peptide in tumor tissue (subcutaneous HIFko tumor) | detection of peptide in tumor islets and surrounding normal brain ([3]; FIG. 2) | homing pattern of peptide in tumor ([3]; murine HIFko intracranial tumor, FIG. 5A) | homing of phage to tumor containing brain versus normal brain, liver, kidney and lungs [4]
1 | Fluorescein-conjugated CGLSGLGVA peptide: CGLSGLGVA peptide conjugated to fluorescein, detected with anti-FITC antibody (also: fluorescein conjugate) | homes to the U87MG human glioblastoma xenografts | peptide distribution resembled that of blood vessels | did not colocalize with the blood vessel marker PECAM-1 | not detected in the tumor tissue | not detected in the tumor tissue | detected only in the tumor islets and not in the surrounding normal brain tissue | detected diffusively in the whole tumor tissue | 
2 | CGLSGLGVA [novel nine amino acid long tumor-homing peptide] |  |  |  |  |  |  |  | very specifically homes to the intracranial, early stage astrocytoma model (HIFko)
